The values below come from the NIST ThermoML archive (doi:10.1016/j.jct.2017.08.035).

Molecules are shown by their SMILES. Numbers after ± are expanded uncertainties.

The conditions of the series: for surface tension liquid-gas: Maximal bubble pressure; for mass density: 100 kPa, Liquid, Vibrating tube method.

Usually surface tension liquid-gas stands for the force per length acting along the surface. The mass density is the mass of a sample divided by its volume. Regarding `CCn1cc[n+](CCOC)c1.O=S(=O)([N-]S(=O)(=O)C(F)(F)F)C(F)(F)F`, the surface tension liquid-gas by setting is: (298.15 K) 36 ± 0.4 mN/m; (303.15 K) 35.8 ± 0.4 mN/m; (308.15 K) 35.5 ± 0.4 mN/m; (313.15 K) 35.2 ± 0.4 mN/m; (318.15 K) 35 ± 0.4 mN/m; (323.15 K) 34.7 ± 0.4 mN/m. In addition, the surface tension liquid-gas came to 34.4 ± 0.4 mN/m (328.15 K), 34.1 ± 0.4 mN/m (333.15 K) and 33.9 ± 0.4 mN/m (338.15 K). Further, the mass density by setting is: (298.15 K) 1463.13 ± 2.4 kg/m3; (303.15 K) 1458.11 ± 2.4 kg/m3; (308.15 K) 1453.11 ± 2.4 kg/m3; (313.15 K) 1448.12 ± 2.4 kg/m3; (318.15 K) 1443.16 ± 2.4 kg/m3; (323.15 K) 1438.21 ± 2.4 kg/m3. Moreover, the mass density by setting is: (328.15 K) 1433.29 ± 2.4 kg/m3; (333.15 K) 1428.39 ± 2.4 kg/m3; (338.15 K) 1423.51 ± 2.4 kg/m3.
As to `CCn1cc[n+](CCOC)c1.O=S(=O)([O-])C(F)(F)F`, the surface tension liquid-gas was 38 ± 0.4 mN/m (298.15 K); 37.7 ± 0.4 mN/m (303.15 K); 37.4 ± 0.4 mN/m (308.15 K); 37.1 ± 0.4 mN/m (313.15 K); 36.9 ± 0.4 mN/m (318.15 K); 36.5 ± 0.4 mN/m (323.15 K). The surface tension liquid-gas came out at 36.3 ± 0.4 mN/m (328.15 K), 36.1 ± 0.4 mN/m (333.15 K) and 35.8 ± 0.4 mN/m (338.15 K). The mass density (298.15 K) came out at 1355.89 ± 4.6 kg/m3; the mass density (303.15 K) turned out to be 1351.61 ± 4.6 kg/m3; the mass density (308.15 K) came out at 1347.35 ± 4.6 kg/m3; the mass density (313.15 K) stood at 1343.11 ± 4.6 kg/m3; the mass density (318.15 K) is 1338.88 ± 4.6 kg/m3; the mass density (323.15 K) is recorded as 1334.67 ± 4.6 kg/m3. Besides, the mass density by setting is: (328.15 K) 1330.48 ± 4.6 kg/m3; (333.15 K) 1326.3 ± 4.6 kg/m3; (338.15 K) 1322.12 ± 4.6 kg/m3.
On to `CC(=O)[O-].CCn1cc[n+](CCOC)c1` [1-ethyl-3-(2-methoxyethyl)imidazolium acetate], for which the surface tension liquid-gas (298.15 K) was determined as 46 ± 0.5 mN/m; the surface tension liquid-gas (303.15 K) was 45.7 ± 0.5 mN/m; the surface tension liquid-gas (308.15 K) stood at 45.4 ± 0.5 mN/m; the surface tension liquid-gas (313.15 K) turned out to be 45.1 ± 0.5 mN/m; the surface tension liquid-gas (318.15 K) was found to be 44.8 ± 0.5 mN/m; the surface tension liquid-gas (323.15 K) amounted to 44.5 ± 0.5 mN/m. Further, the surface tension liquid-gas (328.15 K) amounted to 44.3 ± 0.5 mN/m, the surface tension liquid-gas (333.15 K) was determined as 44.1 ± 0.5 mN/m and the surface tension liquid-gas (338.15 K) worked out at 43.9 ± 0.5 mN/m. In addition, the mass density is, setting by setting: (298.15 K) 1192.38 ± 4.6 kg/m3; (303.15 K) 1189.07 ± 4.6 kg/m3; (308.15 K) 1185.74 ± 4.6 kg/m3; (313.15 K) 1182.43 ± 4.6 kg/m3; (318.15 K) 1179.14 ± 4.6 kg/m3; (323.15 K) 1175.86 ± 4.6 kg/m3. The mass density (328.15 K) came to 1172.58 ± 4.6 kg/m3, the mass density (333.15 K) stood at 1169.35 ± 4.6 kg/m3 and the mass density (338.15 K) was found to be 1166.13 ± 4.6 kg/m3.
Regarding `CCn1cc[n+](CCOC)c1.N#C[N-]C#N` [1-ethyl-3-(2-methoxyethyl)imidazolium dicyanamide], the surface tension liquid-gas (298.15 K) is given as 44.6 ± 0.5 mN/m; the surface tension liquid-gas (303.15 K) is on record as 44.3 ± 0.5 mN/m; the surface tension liquid-gas (308.15 K) is 44 ± 0.5 mN/m; the surface tension liquid-gas (313.15 K) is 43.7 ± 0.5 mN/m; the surface tension liquid-gas (318.15 K) is recorded as 43.4 ± 0.5 mN/m; the surface tension liquid-gas (323.15 K) came to 43.1 ± 0.5 mN/m. For the same molecule, the surface tension liquid-gas was determined as 42.9 ± 0.5 mN/m (328.15 K), 42.7 ± 0.4 mN/m (333.15 K) and 42.4 ± 0.4 mN/m (338.15 K). Further, the mass density (298.15 K) stood at 1113.6 ± 4.6 kg/m3; the mass density (303.15 K) is 1110.21 ± 4.6 kg/m3; the mass density (308.15 K) is listed as 1106.83 ± 4.6 kg/m3; the mass density (313.15 K) is on record as 1103.48 ± 4.6 kg/m3; the mass density (318.15 K) was determined as 1100.15 ± 4.6 kg/m3; the mass density (323.15 K) was 1096.84 ± 4.6 kg/m3. For the same molecule, the mass density runs as follows: (328.15 K) 1093.53 ± 4.6 kg/m3; (333.15 K) 1090.26 ± 4.6 kg/m3; (338.15 K) 1087 ± 4.6 kg/m3.
As for `CCn1cc[n+](CCOC)c1.N#C[S-]` [1-ethyl-3-(2-methoxyethyl)imidazolium thiocyanate], the surface tension liquid-gas reads like this: (298.15 K) 49 ± 0.5 mN/m; (303.15 K) 48.7 ± 0.5 mN/m; (308.15 K) 48.4 ± 0.5 mN/m; (313.15 K) 48 ± 0.5 mN/m; (318.15 K) 47.7 ± 0.5 mN/m; (323.15 K) 47.5 ± 0.5 mN/m. Also, the surface tension liquid-gas (328.15 K) is given as 47.3 ± 0.5 mN/m, the surface tension liquid-gas (333.15 K) amounted to 47.1 ± 0.5 mN/m and the surface tension liquid-gas (338.15 K) came out at 46.7 ± 0.5 mN/m. Moreover, the mass density came to 1122.11 ± 4.6 kg/m3 (298.15 K); 1118.89 ± 4.6 kg/m3 (303.15 K); 1115.69 ± 4.6 kg/m3 (308.15 K); 1112.52 ± 4.6 kg/m3 (313.15 K); 1109.37 ± 4.6 kg/m3 (318.15 K); 1106.23 ± 4.6 kg/m3 (323.15 K). In addition, the mass density by setting is: (328.15 K) 1103.12 ± 4.6 kg/m3; (333.15 K) 1100.01 ± 4.6 kg/m3; (338.15 K) 1096.92 ± 4.6 kg/m3.
